Experimental findings from PubChem BioAssay AID330 (DTP/NCI, 2004) are described below.

Several values for one entry are separate records, joined by “and”; a condition that tells them apart may be missing. Identical values can stand only once. Inconclusive results and toxic doses are left out.

The test has as its system P388 leukemia ip, CD2F1 mice, survival T/C. Nature of the test: NCI In Vivo Anticancer Drug Screen. Data for tumor model P388 Leukemia (intraperitoneal) in CD2F1 (CDF1) mice. The conditions noted are these: endpoint: median survival time, higher = longer survival. A digest of the protocol: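 Mice carrying the transplanted tumor received test compound or vehicle. Survival was recorded in each group, and the value is the treated-group measurement divided by that of the vehicle-treated control group.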

[1] abbreviates: dose: 25.0 mg/kg/injection, schedule: Q01DX009 (ip), vehicle: saline.
[2] abbreviates: dose: 50.0 mg/kg/injection, schedule: Q01DX009 (ip), vehicle: saline with Tween-80.
Setting [3] is: dose: 5.0 mg/kg/injection, schedule: Q01DX009 (ip), vehicle: saline.
Where [4] appears, read: dose: 10.0 mg/kg/injection, schedule: Q01DX009 (ip), vehicle: saline.
Setting [5] is: dose: 100.0 mg/kg/injection, schedule: Q01DX009 (ip), vehicle: saline with Tween-80.
The mark [6] stands for this setting: dose: 200.0 mg/kg/injection, schedule: Q01DX009 (ip), vehicle: saline with Tween-80.
The mark [7] stands for this setting: dose: 50.0 mg/kg/injection, schedule: Q01DX005 (ip), vehicle: Klucel (hydroxypropylcellulose) (HPC).
[8] abbreviates: dose: 100.0 mg/kg/injection, schedule: Q01DX005 (ip), vehicle: Klucel (hydroxypropylcellulose) (HPC).
[9] abbreviates: dose: 200.0 mg/kg/injection, schedule: Q01DX005 (ip), vehicle: Klucel (hydroxypropylcellulose) (HPC).

On to `CC(=O)c1ccc[n+](Cc2c(Cl)cccc2Cl)c1`, for which the T/C by setting is: (dose: 6.25 mg/kg/injection, schedule: Q01DX009 (ip), vehicle: saline) 101 % of control; (dose: 12.5 mg/kg/injection, schedule: Q01DX009 (ip), vehicle: saline) 100 % of control and 104 % of control; under setting [1], 101 % of control and 114 % of control.
Consider `O=C1c2ccccc2C(=O)C1(Br)c1ccccc1`, for which the T/C is, setting by setting: (dose: 100.0 mg/kg/injection, schedule: Q04DX002 (ip), vehicle: saline with Tween-80) 99 % of control; (dose: 200.0 mg/kg/injection, schedule: Q04DX002 (ip), vehicle: saline with Tween-80) 101 % of control.
With `CCC[CH2][Sn]([CH2]CCC)([S]CC(=O)OCc1ccccc1)[S]CC(=O)OCc1ccccc1`, the T/C (dose: 12.5 mg/kg/injection, schedule: Q01DX001 (ip), vehicle: Klucel (hydroxypropylcellulose) (HPC)) is 108 % of control; the T/C (dose: 25.0 mg/kg/injection, schedule: Q01DX001 (ip), vehicle: Klucel (hydroxypropylcellulose) (HPC)) is 116 % of control; the T/C (dose: 50.0 mg/kg/injection, schedule: Q01DX001 (ip), vehicle: Klucel (hydroxypropylcellulose) (HPC)) was 108 % of control.
Take `C[Si](OC(=O)N(CCCl)CCCl)(c1ccccc1)c1ccccc1`: the T/C was 103 % of control (dose: 3.12 mg/kg/injection, schedule: Q01DX009 (ip), vehicle: Klucel (hydroxypropylcellulose) (HPC)); 106 % of control (dose: 6.25 mg/kg/injection, schedule: Q01DX009 (ip), vehicle: Klucel (hydroxypropylcellulose) (HPC)); 113 % of control (dose: 12.5 mg/kg/injection, schedule: Q01DX009 (ip), vehicle: Klucel (hydroxypropylcellulose) (HPC)).
For the compound `CCN(CC)CCCC(C)Nc1c2ccc(Cl)cc2nc2cc(N=Nc3cccc4ccccc34)c(OC)cc12` (centres undefined), the T/C was 92 % of control (dose: 25.0 mg/kg/injection, schedule: Q04DX003 (ip), vehicle: saline with Tween-80); 92 % of control (dose: 50.0 mg/kg/injection, schedule: Q04DX003 (ip), vehicle: saline with Tween-80); 118 % of control (dose: 100.0 mg/kg/injection, schedule: Q04DX003 (ip), vehicle: saline with Tween-80).
Turning to `C=C1C(=O)OC2/C=C(\C)CC(O)/C=C(\C)CC(OC(=O)/C(=C\C)COC(C)=O)C12` (centres undefined), the T/C reads like this: (dose: 6.25 mg/kg/injection, schedule: Q01DX009 (ip), vehicle: saline with Tween-80) 98 % of control; (dose: 12.5 mg/kg/injection, schedule: Q01DX009 (ip), vehicle: saline with Tween-80) 97 % of control; (dose: 25.0 mg/kg/injection, schedule: Q01DX009 (ip), vehicle: saline with Tween-80) 104 % of control; under setting [2], 104 % of control.
For `C(=C\c1cc2ccc(C3=NCCN3)cc2[nH]1)/c1ccc(C2=NCCN2)cc1`, where the note is “dose: 6.25 mg/kg/injection, schedule: Q04DX003 (ip), vehicle: saline”, the T/C is 118 % of control.
For the compound `CC1CCC2(C(=O)O)CCC3(C)C(=CCC4C5(C)CC(O)C(O)C(C)(C(=O)O)C5CCC43C)C2C1(C)O` (centres undefined), the T/C is 100 % of control (dose: 33.0 mg/kg/injection, schedule: Q01DX001 (ip), vehicle: saline with Tween-80); 100 % of control (dose: 50.0 mg/kg/injection, schedule: Q01DX001 (ip), vehicle: saline with Tween-80); 90 % of control (dose: 75.0 mg/kg/injection, schedule: Q01DX001 (ip), vehicle: saline with Tween-80).
For the compound `CC(=O)CC(C)=NCC(C)N=C(C)CC(C)=O.c1cc[c]([Sn][c]2ccccc2)cc1` (centres undefined), the T/C reads like this: (dose: 2.5 mg/kg/injection, schedule: Q01DX009 (ip), vehicle: saline) 154 % of control; under setting [3], 158 % of control and 162 % of control; under setting [4], 185 % of control.
In the case of `O=C1COC(c2ccccc2O)=NN1CCCl`, the T/C was 103 % of control under setting [2], 103 % of control under setting [5] and 110 % of control under setting [6].
Regarding `O=S(=O)(NCCSSCCNS(=O)(=O)c1ccc(F)cc1)c1ccc(F)cc1`, the T/C reads like this: (dose: 50.0 mg/kg/injection, schedule: Q01DX009 (ip), vehicle: Klucel (hydroxypropylcellulose) (HPC)) 95 % of control; (dose: 100.0 mg/kg/injection, schedule: Q01DX009 (ip), vehicle: Klucel (hydroxypropylcellulose) (HPC)) 90 % of control; (dose: 200.0 mg/kg/injection, schedule: Q01DX009 (ip), vehicle: Klucel (hydroxypropylcellulose) (HPC)) 89 % of control.
For `NS(=O)(=O)c1ccc(N=Cc2cnc3ccccc3n2)cc1`, the T/C is 97 % of control under setting [3]; 101 % of control under setting [4]; 97 % of control (dose: 20.0 mg/kg/injection, schedule: Q01DX009 (ip), vehicle: saline).
`S=C(Nc1ccccc1)Nc1nccs1`: the T/C reads like this: under setting [2], 108 % of control; under setting [5], 107 % of control; under setting [6], 117 % of control.
On to `CC(C)(C)[Si](C)(C)ONC(N)=O`, for which the T/C was 99 % of control (dose: 12.5 mg/kg/injection, schedule: Q01DX009 (ip), vehicle: distilled water + Tween-80); 94 % of control (dose: 25.0 mg/kg/injection, schedule: Q01DX009 (ip), vehicle: distilled water + Tween-80); 93 % of control (dose: 50.0 mg/kg/injection, schedule: Q01DX009 (ip), vehicle: distilled water + Tween-80); 88 % of control (dose: 100.0 mg/kg/injection, schedule: Q01DX009 (ip), vehicle: distilled water + Tween-80); 90 % of control (dose: 200.0 mg/kg/injection, schedule: Q01DX009 (ip), vehicle: distilled water + Tween-80).
Consider `Cc1ccc(S(=O)(=O)N2CC3CC(/C=C/c4ccnc5ccccc45)CC(C3)C2)cc1` (centres undefined), for which the T/C by setting is: (dose: 25.0 mg/kg/injection, schedule: Q01DX001 (ip), vehicle: suspension in saline) 96 % of control; (dose: 50.0 mg/kg/injection, schedule: Q01DX001 (ip), vehicle: suspension in saline) 102 % of control; (dose: 100.0 mg/kg/injection, schedule: Q01DX001 (ip), vehicle: suspension in saline) 95 % of control.
Turning to `C=C1C(O)C2(O)OCC34C(CC5C(C)=CC(=O)C(O)C5(C)C23)OC(=O)C(OC(=O)C/C=C(\C)CCCCC)C14` (centres undefined), the T/C was 161 % of control (dose: 2.0 mg/kg/injection, schedule: Q01DX005 (ip), vehicle: saline + alcohol); 168 % of control and 169 % of control (dose: 4.0 mg/kg/injection, schedule: Q01DX005 (ip), vehicle: saline + alcohol).
With `O=C(O)CCc1cccc(O)c1`, the T/C is 110 % of control under setting [1]; 101 % of control (dose: 50.0 mg/kg/injection, schedule: Q01DX009 (ip), vehicle: saline); 103 % of control (dose: 100.0 mg/kg/injection, schedule: Q01DX009 (ip), vehicle: saline); 95 % of control (dose: 200.0 mg/kg/injection, schedule: Q01DX009 (ip), vehicle: saline).
In the case of `O=C1C=C(O)CC2(CCCCC2)C1`, the T/C reads like this: under setting [7], 102 % of control; under setting [8], 100 % of control and 96 % of control; under setting [9], 104 % of control and 105 % of control.
In the case of `CCCOC(=O)C1(N)CCCC1`, the T/C was 100 % of control (dose: 100.0 mg/kg/injection, schedule: Q04DX003 (ip), vehicle: saline); 113 % of control (dose: 200.0 mg/kg/injection, schedule: Q04DX003 (ip), vehicle: saline); 118 % of control (dose: 400.0 mg/kg/injection, schedule: Q04DX003 (ip), vehicle: saline).
`CC(=O)Nc1ccc(C(C)C)cc1N`: the T/C is, setting by setting: under setting [7], 100 % of control; under setting [8], 101 % of control; under setting [9], 107 % of control.
As for `COc1cc2cc(-c3ccc(OC(C)C)c(OC)c3)[n+](C)cc2cc1OC`, the T/C was 100 % of control (dose: 100.0 mg/kg/injection, schedule: Q01DX001 (ip), vehicle: saline with Tween-80) and 94 % of control (dose: 200.0 mg/kg/injection, schedule: Q01DX001 (ip), vehicle: saline with Tween-80).
Take `COC1N(C2CC(O)C(CO)O2)C(=O)NC(=O)C1(F)Br` (centres undefined): the T/C (dose: 178.0 mg/kg/injection, schedule: Q04DX003 (ip), vehicle: saline) is 118 % of control.
As to `O=C(NCCF)Oc1ccc([N+](=O)[O-])cc1`, the T/C (dose: 6.25 mg/kg/injection, schedule: Q01DX005 (ip), vehicle: Klucel (hydroxypropylcellulose) (HPC)) was 106 % of control; the T/C (dose: 12.5 mg/kg/injection, schedule: Q01DX005 (ip), vehicle: Klucel (hydroxypropylcellulose) (HPC)) is 113 % of control and 115 % of control; the T/C (dose: 25.0 mg/kg/injection, schedule: Q01DX005 (ip), vehicle: Klucel (hydroxypropylcellulose) (HPC)) is 121 % of control and 122 % of control.
As to `O=C(O)/C(=C/c1cccs1)c1ccc(F)cc1`, the T/C runs as follows: (dose: 60.0 mg/kg/injection, schedule: Q01DX005 (ip), vehicle: saline with Tween-80) 110 % of control; (dose: 120.0 mg/kg/injection, schedule: Q01DX005 (ip), vehicle: saline with Tween-80) 102 % of control; (dose: 240.0 mg/kg/injection, schedule: Q01DX005 (ip), vehicle: saline with Tween-80) 104 % of control.
